One block for each compound: values may come before it. The source made the active and inactive calls. The rule behind the calls is not given here.
Tests used:
PBMC = assay: Inhibition of TNF production in human PBMC; format: functional, cell-based
Mus musculus [1] = assay: Toxicity in mouse at 200 mg/kg; format: organism-based; parameters: dose 200 mg/kg; conditions: in vivo
Mus musculus [2] = assay: Inhibition of TNF production in mouse at 10 mg/kg; format: functional
MAP kinase p38 [3] = target: T1, MAP kinase p38 (Homo sapiens, UniProt O15264+Q15759+Q16539+P53778); assay: Inhibition of p38 kinase; format: protein assay
Mus musculus [4] = assay: Inhibition of TNF production in orally dosed mouse model; format: functional; conditions: po
Mus musculus [5] = assay: Inhibition of LPS-induced TNF production in mouse at 10 mg/kg after 2 hrs; format: functional
MAP kinase p38 [6] = target: T1, MAP kinase p38; assay: Inhibition of p38 phosphorylation; format: protein assay
[7] = target: Mitogen-activated protein kinase 14 (Homo sapiens, UniProt Q16539); assay: Binding affinity to p38alpha
Cytochrome P450 1A2 = target: T2, Cytochrome P450 1A2 (Homo sapiens, UniProt P05177); assay: Inhibition of CYP1A2 below 15 uM; format: ADME
T2 sequence (P05177 whole entry): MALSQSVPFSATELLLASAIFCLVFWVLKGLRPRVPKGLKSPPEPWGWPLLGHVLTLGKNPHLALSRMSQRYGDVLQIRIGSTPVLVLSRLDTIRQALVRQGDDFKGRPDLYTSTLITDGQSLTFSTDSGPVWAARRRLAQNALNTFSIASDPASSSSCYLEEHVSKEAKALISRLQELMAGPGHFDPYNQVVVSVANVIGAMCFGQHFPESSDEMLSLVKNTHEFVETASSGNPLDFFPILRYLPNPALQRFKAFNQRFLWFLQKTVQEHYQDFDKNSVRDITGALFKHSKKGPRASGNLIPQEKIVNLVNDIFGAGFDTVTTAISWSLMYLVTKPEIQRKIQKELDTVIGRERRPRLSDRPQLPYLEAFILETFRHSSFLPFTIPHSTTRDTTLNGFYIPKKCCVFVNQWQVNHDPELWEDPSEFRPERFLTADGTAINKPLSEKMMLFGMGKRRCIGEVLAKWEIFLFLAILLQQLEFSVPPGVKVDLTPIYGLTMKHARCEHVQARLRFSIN

Cytochrome P450 2D6 = Cytochrome P450 2D6 (Homo sapiens, UniProt P10635); assay: Inhibition of CYP2D6 below 15 uM; format: ADME
Cytochrome P450 2C9 = Cytochrome P450 2C9 (Homo sapiens, UniProt P11712); assay: Inhibition of CYP2C9; format: ADME
Cytochrome P450 3A4 = Cytochrome P450 3A4 (Homo sapiens, UniProt P08684); assay: Inhibition of CYP3A4 below 15 uM; format: ADME
Cytochrome P450 2C19 = Cytochrome P450 2C19 (Homo sapiens, UniProt P33261); assay: Inhibition of CYP2C19; format: ADME
Mus musculus [8] = assay: Inhibition of collagen-induced arthritis in mouse at 30 mg/kg, po; format: functional
Rattus norvegicus = assay: Reduction of swelling in adjuvant-induced arthritis rat at 30 mg/kg, po; format: functional; parameters: scale not given: the % may be the effect or the level left
MAP kinase p38 [9] = target: T1, MAP kinase p38; assay: Inhibition of activated p38 kinase up to 10 uM; format: protein assay
[10] = target: T3, 5-hydroxytryptamine receptor 3A (Homo sapiens, UniProt P46098); assay: Inhibition of 5HT3 receptor
T3 sequence (P46098 whole entry): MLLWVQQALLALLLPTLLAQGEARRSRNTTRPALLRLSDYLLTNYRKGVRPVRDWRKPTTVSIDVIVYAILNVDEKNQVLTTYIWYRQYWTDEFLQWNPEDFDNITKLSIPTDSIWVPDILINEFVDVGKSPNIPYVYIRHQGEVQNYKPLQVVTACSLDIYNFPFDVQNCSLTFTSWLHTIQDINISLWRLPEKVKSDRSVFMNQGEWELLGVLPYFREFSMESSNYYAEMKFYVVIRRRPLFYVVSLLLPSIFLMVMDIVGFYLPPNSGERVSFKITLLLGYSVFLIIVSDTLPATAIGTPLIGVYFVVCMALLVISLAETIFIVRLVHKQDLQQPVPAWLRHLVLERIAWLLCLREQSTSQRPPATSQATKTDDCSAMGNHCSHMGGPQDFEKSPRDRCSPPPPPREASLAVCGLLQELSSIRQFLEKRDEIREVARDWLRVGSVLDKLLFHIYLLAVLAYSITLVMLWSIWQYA

[11] = Bioavailability in mouse; format: ADME, organism-based; conditions: in vivo
[12] = Bioavailability in rat; format: ADME, organism-based; conditions: in vivo
[13] = Bioavailability in dog; format: ADME, organism-based, Canis lupus familiaris; conditions: in vivo
[14] = Bioavailability in monkey; format: ADME, organism-based, Macaca mulatta; conditions: rhesus monkey, in vivo

Cytochrome P450 2C9, sequence (P11712 whole entry): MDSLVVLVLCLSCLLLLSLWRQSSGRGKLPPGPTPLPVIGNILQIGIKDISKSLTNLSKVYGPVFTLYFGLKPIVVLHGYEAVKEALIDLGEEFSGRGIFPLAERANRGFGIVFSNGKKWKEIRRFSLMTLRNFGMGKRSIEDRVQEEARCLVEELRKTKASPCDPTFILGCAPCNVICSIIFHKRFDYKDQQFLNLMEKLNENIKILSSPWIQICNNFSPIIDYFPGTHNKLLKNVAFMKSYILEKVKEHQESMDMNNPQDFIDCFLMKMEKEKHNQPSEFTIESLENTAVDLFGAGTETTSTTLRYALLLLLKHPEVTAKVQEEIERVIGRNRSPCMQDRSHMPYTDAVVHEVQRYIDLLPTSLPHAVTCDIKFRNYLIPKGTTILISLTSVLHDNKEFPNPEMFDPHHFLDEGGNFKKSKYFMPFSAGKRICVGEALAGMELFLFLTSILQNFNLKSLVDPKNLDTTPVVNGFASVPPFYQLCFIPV
Mitogen-activated protein kinase 14, sequence (Q16539 whole entry): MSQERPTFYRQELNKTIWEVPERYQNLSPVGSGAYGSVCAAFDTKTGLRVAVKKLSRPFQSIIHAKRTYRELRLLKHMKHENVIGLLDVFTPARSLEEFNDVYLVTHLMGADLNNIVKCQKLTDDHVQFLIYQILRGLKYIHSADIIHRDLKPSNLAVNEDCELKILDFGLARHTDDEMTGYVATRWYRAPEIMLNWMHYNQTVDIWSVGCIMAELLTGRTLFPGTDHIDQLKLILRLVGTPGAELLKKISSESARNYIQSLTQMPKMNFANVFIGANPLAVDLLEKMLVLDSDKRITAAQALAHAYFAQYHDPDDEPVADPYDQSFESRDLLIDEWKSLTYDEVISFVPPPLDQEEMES
Cytochrome P450 3A4, sequence (P08684 whole entry): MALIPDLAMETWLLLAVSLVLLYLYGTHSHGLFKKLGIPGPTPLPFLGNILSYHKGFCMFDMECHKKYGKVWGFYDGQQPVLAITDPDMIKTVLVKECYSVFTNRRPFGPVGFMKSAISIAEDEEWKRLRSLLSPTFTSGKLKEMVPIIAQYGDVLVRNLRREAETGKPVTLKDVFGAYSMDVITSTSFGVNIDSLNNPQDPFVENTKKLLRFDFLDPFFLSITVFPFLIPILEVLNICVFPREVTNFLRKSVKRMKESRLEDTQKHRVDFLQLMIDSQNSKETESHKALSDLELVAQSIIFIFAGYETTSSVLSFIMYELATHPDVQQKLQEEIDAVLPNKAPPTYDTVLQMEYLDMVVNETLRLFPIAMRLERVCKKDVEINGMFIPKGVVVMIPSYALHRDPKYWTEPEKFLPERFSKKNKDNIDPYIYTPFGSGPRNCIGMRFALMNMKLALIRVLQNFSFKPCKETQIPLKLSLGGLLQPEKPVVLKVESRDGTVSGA
Cytochrome P450 2D6, sequence (P10635 whole entry): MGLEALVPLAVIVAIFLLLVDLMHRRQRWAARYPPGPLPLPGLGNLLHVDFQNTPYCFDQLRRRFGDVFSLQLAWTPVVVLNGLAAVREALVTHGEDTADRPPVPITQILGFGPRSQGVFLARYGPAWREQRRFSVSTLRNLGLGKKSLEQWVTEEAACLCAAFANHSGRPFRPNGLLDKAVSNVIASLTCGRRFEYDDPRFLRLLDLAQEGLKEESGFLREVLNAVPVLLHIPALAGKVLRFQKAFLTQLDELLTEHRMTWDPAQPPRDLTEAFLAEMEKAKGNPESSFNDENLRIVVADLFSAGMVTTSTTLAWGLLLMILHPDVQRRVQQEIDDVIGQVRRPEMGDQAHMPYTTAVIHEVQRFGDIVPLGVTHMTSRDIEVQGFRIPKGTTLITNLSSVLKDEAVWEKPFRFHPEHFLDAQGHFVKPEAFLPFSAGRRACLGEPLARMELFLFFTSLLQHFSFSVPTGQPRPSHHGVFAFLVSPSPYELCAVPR
Cytochrome P450 2C19, sequence (P33261 whole entry): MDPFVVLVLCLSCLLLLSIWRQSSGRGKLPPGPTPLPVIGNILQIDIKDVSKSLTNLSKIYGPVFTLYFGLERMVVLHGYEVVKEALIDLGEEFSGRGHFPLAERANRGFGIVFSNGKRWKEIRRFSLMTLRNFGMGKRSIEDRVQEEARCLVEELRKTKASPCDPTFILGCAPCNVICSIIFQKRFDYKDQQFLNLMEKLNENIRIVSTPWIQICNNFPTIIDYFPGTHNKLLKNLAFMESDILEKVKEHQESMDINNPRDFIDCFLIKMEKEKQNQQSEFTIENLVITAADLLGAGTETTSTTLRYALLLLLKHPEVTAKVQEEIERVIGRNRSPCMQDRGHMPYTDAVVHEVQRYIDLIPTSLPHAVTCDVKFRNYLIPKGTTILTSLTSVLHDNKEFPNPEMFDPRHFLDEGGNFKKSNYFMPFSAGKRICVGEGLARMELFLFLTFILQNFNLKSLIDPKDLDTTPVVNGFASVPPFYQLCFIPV

SMILES: CCN1CCN(c2c(-c3ccncc3)c(-c3ccc(F)cc3)c(C(=O)OC)n2C)CC1
IC50 (PBMC): 135 nM
Activity (Mus musculus [1]): Non-toxic

SMILES: CC(=O)C(=O)c1c(-c2ccc(F)cc2)c(-c2ccncc2)c(N2CCNCC2)n1C
IC50 (PBMC): 28 nM
inhibition in vivo at 10 mg/kg (Mus musculus [2]): 52%

SMILES: COC(=O)c1c(-c2ccc(F)cc2)c(-c2ccncc2)c(NCCN(C)C)n1C
IC50 (PBMC): 98 nM

IC50 (MAP kinase p38 [3]): > 10000 nM
SMILES: CCOC(=O)c1c(-c2cccc(C(F)(F)F)c2)c(-c2ccncc2)c(N2CCNCC2)n1C
IC50 (PBMC): 21 nM

SMILES: COC(=O)c1c(-c2ccc(F)cc2)c(-c2ccncc2)c(N2CCCC2)n1C
IC50 (PBMC): 17 nM

SMILES: CC(=O)c1c(-c2ccc(F)cc2)c(-c2ccncc2)c(N2CCN(C(C)=O)CC2)n1C
IC50 (PBMC): 43 nM
Activity (Mus musculus [1]): Non-toxic

SMILES: COC(=O)c1c(-c2ccc(F)cc2)c(-c2ccncc2)c(N(C)CCN2CCOCC2)n1C
IC50 (PBMC): 38 nM
ED50 (Mus musculus [4]): 3 mg/kg
inhibition in vivo at 10 mg/kg (Mus musculus [2]): 78%

SMILES: Cn1cc(-c2ccc(F)cc2)c(-c2ccncc2)c1N1CCNCC1
IC50 (PBMC): 15 nM

SMILES: CC(=O)c1c(-c2ccc(F)cc2)c(-c2ccncc2)c(N2CCN(C)CC2)n1C
IC50 (PBMC): 529 nM
inhibition in vivo at 10 mg/kg (Mus musculus [5]): 40%

SMILES: CC(=O)c1c(-c2ccc(F)cc2)c(-c2ccncc2)c(N2CCNCC2)n1C
IC50 (PBMC): 40 nM
Activity (Mus musculus [1]): Non-toxic

SMILES: COC(=O)c1c(-c2ccc(F)cc2)c(-c2ccncc2)c(C2=CCNCC2)n1C
IC50 (PBMC): 72 nM
Activity (Mus musculus [1]): Non-toxic

SMILES: CN1CCN(c2c(-c3ccncc3)c(-c3ccc(F)cc3)c(C#N)n2C)CC1
IC50 (PBMC): 80 nM

SMILES: COC(=O)c1c(-c2ccc(F)cc2)c(-c2ccncc2)c(N2CCN(C)CC2)n1C
IC50 (PBMC): 95 nM
Activity (Mus musculus [1]): Non-toxic

IC50 (MAP kinase p38 [3]): 3939 nM
SMILES: CCOC(=O)c1c(-c2ccc(C)cc2)c(-c2ccncc2)c(N2CCNCC2)n1C
IC50 (PBMC): 60 nM
inhibition in vivo at 10 mg/kg (Mus musculus [2]): 79%

SMILES: COC(=O)c1c(-c2ccc(F)cc2)c(-c2ccncc2)c(NCCN2CCOCC2)n1C
IC50 (PBMC): 50 nM

SMILES: COC(=O)c1c(-c2ccc(F)cc2)c(-c2ccncc2)c(N2CCN(C(C)C)CC2)n1C
IC50 (PBMC): 1980 nM

SMILES: COC(=O)c1c(-c2ccc(F)cc2)c(-c2ccncc2)c(NC2CCNCC2)n1C
IC50 (PBMC): 315 nM

Activity (MAP kinase p38 [6]): Active
SMILES: CC(=O)N1CCN(c2c(-c3ccncc3)c(-c3ccc(F)cc3)c(C#N)n2C)CC1 [listing 1 of 2 here]

SMILES: CC(C)NC(=O)c1c(-c2ccc(F)cc2)c(-c2ccncc2)c(N2CCNCC2)n1C
IC50 (PBMC): 10000 nM

IC50 (MAP kinase p38 [3]): > 10000 nM
SMILES: CCOC(=O)c1c(-c2cc(F)cc(F)c2)c(-c2ccncc2)c(N2CCNCC2)n1C
IC50 (PBMC): 93 nM
inhibition in vivo at 10 mg/kg (Mus musculus [2]): 79%

IC50 (MAP kinase p38 [3]): 2000 nM
Kd [7]: 100 nM
Activity (Cytochrome P450 1A2): Not Active
Activity (Cytochrome P450 2D6): Not Active
IC50 (Cytochrome P450 2C9): 4000 nM
Activity (Cytochrome P450 3A4): Not Active
IC50 (Cytochrome P450 2C19): 8000 nM
SMILES: CC(=O)N1CCN(c2c(-c3ccncc3)c(-c3ccc(F)cc3)c(C#N)n2C)CC1 [listing 2 of 2 here]
IC50 (PBMC): 123 nM
ED50 (Mus musculus [4]): 0.5 mg/kg
Activity (Mus musculus [1]): Non-toxic
inhibition in vivo at 30 mg/kg (Mus musculus [8]): 50%
Activity (Rattus norvegicus): 91%

SMILES: CCC(=O)c1c(-c2ccc(F)cc2)c(-c2ccncc2)c(N2CCNCC2)n1C
IC50 (PBMC): 67 nM

SMILES: CCCN1CCN(c2c(-c3ccncc3)c(-c3ccc(F)cc3)c(C(=O)OC)n2C)CC1
IC50 (PBMC): 901 nM

SMILES: COC(=O)c1c(-c2ccc(F)cc2)c(-c2ccncc2)c(N2CCOCC2)n1C
IC50 (PBMC): 47 nM

Activity (MAP kinase p38 [9]): inactive
IC50 [10]: 275 nM
SMILES: COC(=O)c1c(-c2ccc(F)cc2)c(-c2ccncc2)c(N2CCNCC2)n1C
IC50 (PBMC): 33 nM
ED50 (Mus musculus [4]): 7.5 mg/kg
Activity (Mus musculus [1]): Toxic

SMILES: Cn1c(C(=O)c2ccccc2)c(-c2ccc(F)cc2)c(-c2ccncc2)c1N1CCNCC1
IC50 (PBMC): 660 nM

bioavailability [11]: 70%
bioavailability [12]: 70%
bioavailability [13]: 70%
bioavailability [14]: 70%
SMILES: CC(=O)N1CCN(c2c(-c3ccncc3)c(-c3ccc(F)cc3)c(C#N)n2C)CC1.Cl

SMILES: COC(=O)c1c(-c2ccc(F)cc2)c(-c2ccncc2)c(NCCN2CCCCC2)n1C
IC50 (PBMC): 92 nM

SMILES: CNC(=O)c1c(-c2ccc(F)cc2)c(-c2ccncc2)c(N2CCNCC2)n1C
IC50 (PBMC): 779 nM

SMILES: Cn1c(C#N)c(-c2ccc(F)cc2)c(-c2ccncc2)c1N1CCNCC1
IC50 (PBMC): 18 nM
ED50 (Mus musculus [4]): 5 mg/kg

Reference: ChEMBL document CHEMBL1139735, “Inhibitors of unactivated p38 MAP kinase” (Bioorg Med Chem Lett, 2006)
